Source: patent US20220288065A1, “MONOCYCLIC AGONISTS OF STIMULATOR OF INTERFERON GENES STING” (The Scripps Research Institute, priority 2019, published 2022)

What follows are molecules tested on THP-1 Lucia ISG cells (assay: ISG-LUC activation assay (ISRE-luciferase assay)). Conditions: Homo sapiens, THP1-Lucia ISG, activity score based upon potency and efficacy data, 24 hours.
Assay type: cell-based
Source text: We have established a robust platform for identifying non-nucleotide small molecule STING agonists. This has been established using a primary assay involving a human THP-1 cell line carrying an IRF-inducible reporter with 5 copies of the IFN signaling response element. Counter screens, involving alternative reporter constructs, rodent cell-based assays, as well as cGAS and STING knock-out cell lines, are used to eliminate luciferase artifacts and ensure human-rodent cross species reactivity, as well as pathway selectivity. Biochemical assays, involving cGAS enzymatic activity and STING protein binding assays, are used to identify the specific target of identified hits.
Tissue culture. Wild-type (cat. no. thpl-isg) and STING KO (cat. no. thpd-kostg) THP-1-Lucia ISG cells were purchased from Invivogen and maintained in growth media consisting of RPMI 1640, 2 mM L-glutamine, 25 mM HEPES, 10% heat-inactivated fetal bovine serum (FBS), 1,000 units/ml penicillin, 1,000 μg/ml streptomycin, 0.25 μg/ml Amphotericin B, and 100 μg/ml zeocin unless otherwise stated.
ISRE-luciferase assay. THP-1 Lucia ISG cells were resuspended in low-serum growth media (2% FBS) at a density of 5×10^5 cells/ml and treated with test article or vehicle (DMSO). 50 μL of cells were seeded into each well of a 384-well white greiner plates and incubated for 24 hours. To evaluate expression of the luciferase reporter, 30 μl of Quanti-luc (Invivogen) detection reagent was added to each well and luminescence was read using an Envision plate reader (Perkin Elmer) set with an integration time of 0.1 seconds.

Row | Structure (SMILES) | EC50 [nM]
1 | C#Cc1cc(NC(=O)c2ccc(-c3ccncc3)nn2)c(C(=O)O)cc1F [Compound 1, lithium 4-ethynyl-5-fluoro-2-(6-(pyridin-4-yl)pyridazine-3-carboxamido) benzoate] | < 900
2 | COC(=O)c1cc(F)c(F)cc1NC(=O)c1nnc(-n2ccnc2)cc1CN [Compound 2, methyl 2-(4-(aminomethyl)-6-(1H-imidazol-1-yl)pyridazine-3-carboxamido)-4,5-difluorobenzoate] | > 1000
3 | C#Cc1cc2nc(-c3ccc(-c4ccncc4)nn3)oc(=O)c2cc1F [Compound 3, 7-ethynyl-6-fluoro-2-(6-(pyridin-4-yl)pyridazin-3-yl)-4H-benzo[d][1,3]oxazin-4-one] | < 900
4 | COC(=O)c1cc(F)c(F)cc1NC(=O)c1ccc(-n2ccnc2CO)nn1 [Compound 4] | < 3000
5 | COC(=O)c1cc(F)c(F)cc1NC(=O)c1ccc(C#N)nn1 [Compound 5] | > 1000
6 | CS(=O)(=O)NCCNc1cc(C(=O)Nc2cc(F)c(F)cc2C(=O)O)nnc1-n1ccnc1 [Compound 6] | > 1000
7 | COC(=O)c1cc(F)c(F)cc1NC(=O)c1nnc(-n2ccnc2)cc1CO [Compound 7] | < 900
8 | COC(=O)c1cc(F)c(F)cc1NC(=O)c1ccc(N)nn1 [Compound 8] | > 1000
9 | COC(=O)c1cc(F)c(F)cc1NC(=O)c1ccc(CC#N)nn1 [Compound 9] | > 1000
10 | COC(=O)c1cc(F)c(F)cc1NC(=O)c1ccc(-c2cccnc2)nn1 [Compound 10] | > 1000
11 | CCOC(=O)Nc1ccc(C(=O)Nc2cc(F)c(F)cc2C(=O)O)nn1 [Compound 11] | > 1000
12 | COC(=O)c1cc(Cl)c(OC)cc1NC(=O)c1cc(N)ncn1 [Compound 12] | > 1000
13 | NC(=O)c1ccc(C(=O)Nc2cc(F)c(F)cc2C(=O)O)cn1 [Compound 13] | > 20000
14 | Nc1n[nH]cc1-c1ccc(C(=O)Nc2cc(F)c(F)cc2C(=O)O)nn1 [Compound 14] | > 1000
15 | COC(=O)c1cc(F)c(F)cc1NC(=O)c1ccc(-c2c[nH]nn2)nn1 [Compound 15] | < 900
16 | COC(=O)c1cc(F)c(F)cc1NC(=O)c1cc(C(N)=O)cnn1 [Compound 16] | > 1000

Row | Structure (SMILES) | EC50 [nM]
17 | COC(=O)c1cc(F)c(F)cc1NC(=O)c1ccc(CO)nn1 [Compound 17] | < 3000
18 | COC(=O)c1cc(Cl)c(Cl)cc1NC(=O)c1ccc(N)nn1 [Compound 18] | > 1000
19 | COc1cncc(-c2ccc(C(=O)Nc3cc(F)c(F)cc3C(=O)O)nn2)c1 [Compound 19] | > 1000
20 | COC(=O)c1cc(F)c(F)cc1NC(=O)c1cc(N)cnn1 [Compound 20] | < 900
21 | O=C(Nc1cc(F)c(F)cc1C(=O)O)c1ccc(-c2cccnc2)nn1 [Compound 21] | > 1000
22 | COC(=O)c1cc(Cl)c(Cl)cc1NC(=O)c1cn(-c2cnn(C(=O)OC(C)(C)C)c2)nn1 [Compound 22] | > 1000
23 | COC(=O)c1cc(Cl)c(Cl)cc1NC(=O)c1cn(-c2cn[nH]c2)nn1 [Compound 23] | < 900
24 | COC(=O)c1cc(Cl)c(Cl)cc1NC(=O)c1nnc(-n2ccnc2)cc1CN [Compound 24] | < 900
25 | COC(=O)c1cc(Cl)c(Cl)cc1NC(=O)c1ccc(-n2ccnc2)cn1 [Compound 25] | > 1000
26 | COC(=O)c1cc(Cl)c(Cl)cc1NC(=O)c1cc(CN)c(-n2ccnc2)nn1 [Compound 26] | < 900
27 | COC(=O)c1cc(C#N)c(Cl)cc1NC(=O)c1ccc(-c2c(Br)cnn2C)nn1 [Compound 27] | > 20000
28 | N#Cc1n[nH]cc1-c1ccc(C(=O)Nc2cc(Cl)c(F)cc2C(=O)O)nn1 [Compound 28] | > 1000
29 | O=C(Nc1cc(Cl)c(F)cc1C(=O)O)c1ccc(-c2cnsc2)nn1 [Compound 29] | < 900
30 | COC(=O)c1cc(C#N)c(Cl)cc1NC(=O)c1ccc(-c2c[nH]nn2)nn1 [Compound 30] | < 900
31 | O=C(Nc1cc(Cl)c(F)cc1C(=O)O)c1ccc(-c2ccns2)nn1 [Compound 31] | < 900
32 | Cn1cc(C#N)c(-c2ccc(C(=O)Nc3cc(Cl)c(Cl)cc3C(=O)O)nn2)n1 [Compound 32] | > 20000
